The values that follow come from patent US20170035845A1, “Compositions and Methods for Inhibiting Pro-Inflammatory Cytokine Gene Expression” (The Regents of the University of California, priority 2015, published 2017).

The subject of experiment [1] is THP-1 cells. As to the kind of experiment: Real time quantitative PCR of cytokine mRNA, LPS-stimulated THP-1 cells. The class given is cell-based, human. The protocol: Differentiated THP-1 cells were treated with LPS and RTD-1 for 2 hours as above, washed with PBS and RNA was isolated using an RNA mini kit (Zymo Research, Irvine, Calif.) or with RNeasy mini kit (Qiagen, Valencia, Calif.). RNA integrity was confirmed on agarose gels and RNA samples with A260/280 and A260/230 ratios ≧1.7 were used to generate cDNA. Briefly, 400 ng RNA was incubated with genomic DNA (gDNA) elimination (GE) buffer for 5 minutes at […]. and reverse transcribed using the RT^2 first strand synthesis kit (Qiagen). Custom PCR arrays (SA Biosciences, Frederick, Md.) containing human genes of interest and controls (for reverse transcriptase and PCR efficiency, RTC and PPC respectively) were used for simultaneous real time PCR analysis. Master mix containing cDNA and RT^2 SYBR Green™ was added to array wells. PCR cycling parameters were: 1 cycle 10 minutes at 95° C., 40 cycles of 15 seconds at 95° C., 1 minute at 60° C. on a BioRad C1000 Thermal Cycler equipped with a CFX96 real time system. Melting curve analysis confirmed a single amplicon with CT PPC=20±2 and ACT (RTC-PPC)<5 for all samples. The ACTB gene was used for normalization of gene expression and fold stimulation (compared to untreated cells) was calculated using the ΔΔCT method. Absence of gDNA in cDNA samples (CT>35) was confirmed using a human gDNA primer (SA Biosciences).

Experiment [2] deals with inflammatory cytokines. As to conditions: mouse models; cited from earlier work.
For experiment [3], the system named is TLR9-dependent NF-κB activation. Briefly: TLR9-dependent NF-κB activation (SEAP) in HEK-Blue hTLR9 cells. The class given is cell-based, human. As to conditions: ODN2006, RTD-1 10 μg/ml. On the procedure: (§1) One ml aliquots of PMA-differentiated THP-1 Dual cells (3.3×10^5 cells/nil) in 24 well tissue culture plates were starved for 1 day in complete medium with 1% HI FBS as described above. For experiments with S7 peptide, 0.5 ml cultures in 48 well plates were used. Fresh medium containing 1% HI FBS was added to the cells and after 2 hours cells were stimulated with 100 ng/ml LPS or 25 ng/ml Pam3CSK4 in the presence of RTD-1 or 0.01% acetic acid (HOAc, vehicle). In some experiments cells were pre-incubated with marimastat, Ly294002 or vehicle for 1 hour prior to addition of LPS and/or RTD-1 (SEQ ID NO. 1). Following overnight incubation, medium was clarified by centrifugation and SEAP activity was determined using Quantiblue reagent at 37° C. and measurement of absorbance at 625 nm. To test the effect of RTD-1 on TLR9-dependent NF-κB activation, 2×10^5 HEK-Blue™ hTLR9 cells/ml were cultured for 1 day in 24 well plates and stimulated overnight with ODN2006 with or without RTD-1. Medium was harvested and SEAP activity was assayed using Quantiblue™ as above. NF-κB activation was defined as fold stimulation of SEAP activity with respect to control cells.

Experiment [4] has as its system peripheral blood leukocytes. As to conditions: human peripheral blood leukocytes, diverse TLR agonists (Schaal et al 2012); cited from earlier work.
Experiment [5] relates to NF-κB p65. As to the kind of experiment: NF-κB DNA-binding activity (p65 ELISA) in THP-1 nuclear extracts. It counts as cell-based, human. On the procedure:
Nuclear extracts were prepared (nuclear extraction kit; Cayman Chemical Co., Ann Arbor, Mich.) from differentiated THP-1 cells treated for 30 minutes with vehicle, LPS (100 ng/ml) or TNF-α (2 ng/ml) in the presence or absence of 10 μg/ml RTD-1 (SEQ ID NO. 1). NF-κB DNA binding was quantified by p65 ELISA (Cayman Chemical Co.). Non-specific DNA-binding, positive control extract and positive control extract treated with competitor DNA control included with the ELISA were used to confirm specificity of DNA-binding.

For experiment [6], the system named is NF-κB. Briefly: NF-κB activity assay (SEAP reporter, Quantiblue) in THP-1 Dual cells. The class given is cell-based, human. On the procedure:
as §1

Setting [7] is: LPS 100 ng/ml, RTD-1 10 μg/ml, 2 hours.

With “RTD-1: rhesus theta-defensin 1, macrocyclic tri-disulfide θ-defensin peptide, SEQ ID NO. 1, synthetic (cyclo(GFCRCLCRRGVCRCICTR); disulfide (positions not given here); not fully specified (bridges); also: three disulfides, places not given here; listed as Macaca mulatta)”, in experiment [1] (setting [7]), the “LPS-induced mRNA expression of CCL3” value is “markedly inhibited”, the “LPS-induced mRNA expression of CCL4” value is “markedly inhibited”, the “LPS-induced mRNA expression of IL-1β” value is “markedly inhibited” and the “LPS-induced mRNA expression of IL-8” value is “markedly inhibited”. Further, the “LPS-induced mRNA expression of TNF-α” value in experiment [1] (setting [7]) is on record as “markedly inhibited”. Moreover, the “expression of GAPDH” value in experiment [1] (addition of RTD-1) is given as “no effect”. In addition, the “cytokine mRNA expression” value in experiment [1] (peptide alone, no LPS) is “no effect”. In experiment [2], the “inflammatory cytokines, including TNF-α, IL-1β and several chemokines” value was “reduce inflammatory cytokines”. Further, the “suppression of ODN2006-mediated NF-κB activation” value in experiment [3] is on record as “to baseline levels”. Moreover, in experiment [4], the “inhibition of cytokine secretion” value is reported as “potent inhibitor”. For the same substance, in experiment [5] (LPS 100 ng/ml, RTD-1 10 μg/ml, 30 minutes), the “NF-κB DNA binding, LPS-stimulated” value is reported as “to baseline levels”. In addition, in experiment [5] (LPS stimulated macrophages, Western blot of nuclear extracts), the “translocation of NF-κB p65 to the nucleus” value is on record as “inhibit translocation”. In addition, the “suppression of TNF-α-stimulated NF-κB DNA binding” value in experiment [5] (TNF-α 2 ng/ml, RTD-1 10 μg/ml, 30 minutes, compared with TNF-α alone) was around 35%. The “dose dependence of inhibition of NF-κB activation” value in experiment [6] (LPS 100 ng/ml, RTD-1 5 and 10 μg/ml) is on record as “dose dependent”. In experiment [6] (LPS 100 ng/ml, comparison RTD-1 versus marimastat, RTD-1 in the presence or absence of marimastat), the “LPS-stimulated NF-κB activation” value is “potent inhibitor”. Further, the “suppression of LPS-induced NF-κB activation” value in experiment [6] (LPS 100 ng/ml, simultaneous RTD-1 10 μg/ml, THP-1 Dual cells) is recorded as around 70%. Besides, the “direct effect on the enzymatic activity of the SEAP reporter” value in experiment [6] (LPS/RTD-1 control) was “no direct effect”. In addition, in experiment [6] (Pam3CSK4 25 ng/ml, RTD-1 10 μg/ml), the “inhibition of Pam3CSK4-induced NF-κB activity” value is around 70%. Moreover, the “effect on NF-κB activation” value in experiment [6] (RTD-1 alone, no LPS) was “no effect”.
